Measurements: patent publication US7056656B1, “Tat-derived oligourea and its method of production and use in high affinity and specific binding HIV-1 TAR RNA” (priority 1999, dated 2006)

Columns and labels:
[1] = test system: HIV-1 TAR RNA (wild-type); experiment: Direct and competition electrophoretic mobility assays, oligourea/peptide-TAR RNA complexes; assay type: binding; conditions: for Kd: multiple sets of experiments, read-out: KD (equilibrium dissociation constant) for TAR RNA
From the text: (§1) FIG. 2A: Secondary structure of wild-type TAR RNA used in this study. Wild-type TAR RNA spans the minimal sequences that are required for Tat responsiveness in vivo ^14 and for in vitro binding of Tat-derived peptides.^9 Wild-type TAR contains two non-wild-type base pairs to increase transcription by T7 RNA polymerase. Mutant M0 TAR contained no bulge residue in its sequence. In mutant G26C, a base-pair in the upper stem of TAR RNA, G26-C39 was substituted by C26-G39. FIG. 2B: Electrophoretic mobility shift analysis for the Tat-derived oligourea binding to wild-type and trinucleotide bulge mutant (M0) TAR RNA. 5′-end labeled TAR RNAs (40 nM) were heated to 85° C. for three minutes mm and then cooled to room temperature in TK buffer (50 mM Tris-HCl pH 7.4), 20 mM KCl, 0.1% Triton X-100). The oligourea (150 nM) was added to wild-type or mutant TAR and incubated at room temperature for one hour. After adding 30% glycerol, the oligourea-RNA complexes were resolved on a non-denaturing 12% acrylamide gel and visualized by autoradiography or phosphorimaging. FIG. 2C: Specificity of the oligourea-TAR complex formation determined by competition experiments. Oligourea-RNA complexes were formed in the presence of increasing concentrations of unlabeled wild-type or mutant TAR RNAs. Concentrations of the competitor RNAs in lanes 3, 4, 5, 6 were 50, 100, 150, and 200 nM, respectively. Lanes 1 and 2 were marker lanes showing RNA and oligoureaRNA complexes. Oligourea-RNA complexes are labeled as R—P.
To compare the RNA-binding affinities of the oligourea to natural peptide, we synthesized a tat-derived peptide (Tyr47 to Arg57) containing the RNA-binding domain of Tat protein (FIG. 1). Dissociation constants of the Tat peptide-RNA complexes were determined from multiple sets of experiments under the same conditions used for oligourea-TAR RNA complexes. […] A relative dissociation constant (KREL) can be determined by measuring the ratios of wild-type Tat peptide to the oligourea dissociation constants (KD) for TAR RNA.

proteinase K [2] = biological target: T1, proteinase K (Parengyodontium album, UniProt P06873); experiment: Proteinase K digestion of RNA crosslink products (protease stability); assay type: in vitro ADME; conditions: 55° C., fifteen minutes after UV irradiation
T1 sequence (P06873 106-384): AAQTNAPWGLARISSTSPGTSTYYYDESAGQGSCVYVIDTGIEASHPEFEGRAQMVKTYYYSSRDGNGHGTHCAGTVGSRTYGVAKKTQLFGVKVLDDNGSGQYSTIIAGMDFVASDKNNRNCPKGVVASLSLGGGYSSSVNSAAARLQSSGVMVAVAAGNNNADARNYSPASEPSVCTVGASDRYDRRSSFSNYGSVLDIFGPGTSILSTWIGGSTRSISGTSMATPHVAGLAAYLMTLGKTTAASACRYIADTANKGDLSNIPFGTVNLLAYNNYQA
Method: FIG. 3. Site-specific photocrosslinking reaction of TAR RNA labeled with 4-thioUracil at position 23 with the oligourea. For photochemical reactions, RNA duplex was prepared by hybridizing two strands.^5,7 Strand 1 of the duplex was 5′-end labeled with 32p Preformed RNA duplexes (40 nM) in the absence or presence of the oligourea (100 nM) were irradiated ([…]) and analyzed by denaturing gels as described earlier.^5,7 Proteinase K digestion was performed at 55° C. for fifteen minutes after LW irradiation. R—R and R—P XL indicate the RNA—RNA and RNA-oligourea crosslink, respectively.
To probe the oligourea-RNA interactions and determine the proteolysis stability of oligourea, we synthesized TAR RNA containing 4-thioU at position 23 and performed photocrosslinking experiments as described earlier (FIG. 3).^5,7 Irradiation of the oligourea-RNA complex yields a new band with electrophoretic mobility less than that of the RNA (lane 4). Both the oligourea and UV (360 nm) irradiation are required for the formation of this crosslinked RNA-oligourea complex (see lanes 3 and 4). Since the crosslinked oligourea-RNA complex is stable to alkaline pH (9.5), high temperature (85° C.) and denaturing conditions (8M urea, 2% SDS), we conclude that a covalent bond is formed between TAR RNA and the oligourea during the crosslinking reaction.

[3] = test system: mutant TAR RNA without the bulge residues (M0); experiment: Electrophoretic mobility shift analysis with trinucleotide bulge mutant (M0) TAR RNA; assay type: binding, HIV-1; conditions: M0 TAR RNA 40 nM, oligourea 150 nM
From the text: as §1, with “Lanes 1 and 2 were marker lanes showing RNA and oligoureaRNA complexes. Oligourea-RNA complexes are labeled as R—P.” left out

[4] = test system: HIV-1 TAR RNA (wild-type); experiment: Specificity of oligourea-TAR complex formation by competition with unlabeled TAR RNAs; assay type: binding
From the text: as §1
Specificity of the oligourea-TAR RNA complex formation was addressed by competition experiments (FIG. 2c).
Two base-pairs immediately above the pyrimidine bulge are critical for Tat recognition.^9 To determine whether the oligourea recognizes specific base-pairs in the stem region of TAR RNA or only a trinucleotide bulge containing RNA, we synthesized a TAR mutant where the G26-C39 base pair was substituted by a C26-G39 base-pair (FIG. 2a).

[5] = test system: Tat transactivation (HIV-1 LTR); experiment: Inhibition of Tat transactivation, CAT activity from integrated HIV-1 LTR of HL3TI cells; assay type: cell-based; conditions: luciferase as control
Method: FIG. 4. […] CAT activity expressed from the integrated HIV-1 LTR of HL3TI Cells with increasing amounts of oligourea is shown. Luciferase activity was a control experiment to monitor the transfection inhibition of pSV2Tat by the addition of oligourea. CAT and Luciferase activities were measured from multiple experiments and normalized to 100%.

proteinase K [6] = biological target: T1, proteinase K; conditions: similar proteinase K treatment; cited from earlier work
[7] = test system: Tat peptide (47-57), arginine-rich RNA-binding domain (HIV-1); experiment: EMSA; conditions: printed 0.78+0.05; same conditions as the oligourea
[8] = biological target: Tat-derived oligourea (unnatural urea backbone carrying Tat 48-57 side chains) (HIV-1) (UniProt P04608); experiment: EMSA

In the case of GRKKRRQRRR [oligourea], the “relative dissociation constant KREL (ratio of wild-type Tat peptide KD to oligourea KD for TAR RNA)” value ([1]; wild-type TAR RNA) is reported as 7.09, the “binding to TAR RNA (mobility shift)” value ([1]; wild-type TAR RNA 40 nM, oligourea 150 nM) is reported as “able to bind TAR RNA” and the Kd ([1]; wild-type TAR RNA) is reported as 110 ± 70 nM. The “stability of RNA crosslink products to proteinase K digestion” value (proteinase K [2]) was “completely stable”, the “binding to mutant TAR RNA without the bulge residues” value [3] was “failed to bind” and the “competition by mutant TAR (G26C) for oligourea binding to TAR RNA” value ([4]; competitor G26C TAR RNA (G26-C39 replaced by C26-G39)) was “did not inhibit”. For the same substance, the “competition by mutant TAR RNA without a trinucleotide bulge for oligourea binding to wild-type TAR RNA” value ([4]; competitor M0 TAR RNA 50-200 nM) was “not able to compete”, the “competition by mutant TAR RNA with one base bulge for oligourea binding to wild-type TAR RNA” value ([4]; competitor one base bulge TAR RNA, data not shown) was “not able to compete” and the “oligourea-RNA complex formation on addition of unlabeled wild-type TAR RNA” value ([4]; competitor wild-type TAR RNA 50-200 nM) was “inhibited”. The “Tat transactivation (CAT activity) with increasing amounts of oligourea” value [5] was “Inhibition of Tat transactivation”.

In the case of “Tat: Tat of the Tat-TAR photocrosslink products from earlier cited work (ref. 5)”, the “stability of Tat-TAR photocrosslink products to proteinase K treatment” value (proteinase K [6]) is listed as “complete loss of RNA-protein crosslink”.

“Tat peptide (47–57): tat-derived peptide (Tyr47 to Arg57) containing the RNA-binding domain of Tat protein [reference compound]” showed a Kd ([1]; wild-type TAR RNA) of 780 nM.

wild-type TAR RNA showed a Kd [7] of 780 nM and a Kd [8] of 110 nM.
